According to US11447534B2, “Peptide complex with immunodulatory and anti-inflammatory function” (NATIONAL INSTITUTE OF IMMUNOLOGY, priority 2018, dated 2022):
“Also recorded” adds a separate entry of the source.

What was measured:
5×FAD Tg mice [1] = test: Brain amyloid pathology by Congo Red staining and fibrillar Abeta42 immunostaining; format: in vivo, mouse; conditions: for amyloid pathology / deposits in brain (Congo Red): 300 ng per mouse subcutaneously for 2 months
Description: (§1) Two month old 5×FAD Tg mice, both male as well as female were used for the study. For the purposes of this study wild type mice is referred to as Wt and 5×FAD mice is referred to as Tg. For experimentation, the mice were divided in below groups for treatment: 1. Wild type mice given vehicle (1×PBS or phosphate buffered saline; pH 7.4). 2. 5×FAD Transgenic mice given vehicle. 3. 5×FAD Transgenic mice given undercarboxylated osteocalcin (Glu-OC) subcutaneously at dose of 300 ng per mouse of weight ranging from 25-28 g for 2 months.
(§2) For immunohistochemistry, sacrificed animals were perfused using 4% paraformaldehyde perfusion through the heart and the brains were harvested and submerged in the same fixative for not more than 24 hours. Brains were then washed in 1×PBS (pH 7.4) and placed in 30% sucrose-PBS solution where these initially floated owing to the weight of the sucrose. Upon saturation, the brains sank to the bottom of the sucrose solution. These were then removed and washed in PBS. Brain samples were quick frozen in liquid nitrogen and then embedded in polyfreeze tissue freezing medium in a plastic mould inside a cryostat where in temperature was −20° C. The samples were then stored in −80° C. until sectioning. Sections of 15-20 micrometre was cut in a cryostat and laid over high adsorbent microslides. For unmasking antigens, slides were heated at 55° C. for 10 min followed by hydration in PBS for 5 min and then permeabilization using 0.1% Triton X-100 in PBS containing 1% BSA and 1% normal goat serum (IHC buffer). For immunostaining, brain sections were incubated in primary antibodies (fibrillar Amyloid beta antibody, catalogue number MABN638 was from Millipore-Merk; osteocalcin antibody-catalogue number sc365797 was from Santa Cruz Biotechnology; Abeta1-42 antibody D923A #14974 was from Cell Signaling Technology) diluted in IHC buffer in a humidified chamber at room temperature overnight. For double immunostaining, specific antibodies against Abets42 and osteocalcin were incubated together with brain sections. […]

5×FAD Tg mice [2] = test: ELISA of soluble and insoluble Abeta42 in brain; format: in vivo, mouse; conditions: vs 5×FAD Tg control
Description: as §1
as §2, with “sections. After rinsing with PBS three times for 5 min each, sections were incubated with the appropriate secondary antibody conjugated with AlexaFluor 594 or 488 (Molecular Probes, Invitrogen) for 2 h at room temperature. After rinsing with PBS, the coverslips were mounted with ProLong anti-fade mounting medium containing 4′,6-diamidino-2-phenylindole (DAPI) and imaged. Congo Red staining was done using staining kit from Abcam (ab150663) according to manufacturer's instructions. ELISA or enzyme linked immunosorbent assay was conducted on soluble and insoluble fractions prepared from brain samples. (a.) Preparation of soluble or DEA fraction or non-plaque associated Abeta.” for “sections.”

RAW264.7 macrophages [3] = test: qPCR of Cd74, Cd36 in serum starved macrophages; format: cell-based, murine; conditions: unstimulated RAW264.7 macrophages, with respect to basal
Abeta42 = molecular target: T1, Abeta42 (Homo sapiens, UniProt P05067); test: Abeta42 fibrillization in situ (TEM, Thioflavin T binding assay); format: biochemical
T1 construct: of Abeta 1-42 peptide; Molecular weight = 4514.1; purchased r-peptide
T1 sequence (P05067 672-713): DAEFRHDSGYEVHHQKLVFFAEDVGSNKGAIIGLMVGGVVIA
Description: For this study, different concentrations of Glu-OC viz. […] After keeping the samples for 5 minutes, the excess was washed off with ultrapure water and surplus sample and water were wicked away using absorbent paper. The samples were negatively stained using 1% uranyl acetate stain, dried and analyzed in a transmission electron microscope CM10 Philips operated at 80 kV. […] ThT assay measures the changes in fluorescence intensity of ThT upon binding to amyloid fibrils. […] The resulting ThT fluorescence intensities of samples were measured at an emission wavelength of 480 nm and excitation wavelength of 440 nm and 5 nm slit width using a Jobin Vyon Horiba Fluoromax-4 spectrofluorimeter. The inner filter effect was taken into account using the Equation: Fc=F×anti log[(Aex+Aem)/2] where Fc is the corrected flourescence and F is apparent fluorescence, Aex and Aem are the absorbances of the samples at excitation and emission wavelengths respectively.

5×FAD Tg mice [4] = test: Morris water maze test in 5×FAD Tg mice; format: in vivo; conditions: 300 ng per mouse subcutaneously for 2 months, vs 5×FAD Tg control
Description: as §1
Glu-OC at a dose of 300 ng per mouse was administered subcutaneously for 2 months. To evaluate the potential of Glu-OC against development of Alzheimer's disease in 5×FAD Tg mice (a mouse model for Alzheimer's disease), the following methodologies used conducted: Morris water maze (MWM) test, immunohistochemistry, double immunostaining, ELISA and Congo Red staining. […] The training was given for the five consecutive days, with the video recording and the track of the animal was also recorded using the Any-maze animal behaviour software. Time taken to find the hidden platform is calculated and plotted.

RAW264.7 macrophages [5] = test: Lactate dehydrogenase (LDH) assay in macrophages; format: cell-based, murine; conditions: macrophages, serum starved, 1 hour
Description: Effect of Abeta-Glu-OC (3 ng) mixture on macrophage integrity: To determine whether the mixture produced any toxicity lactate dehydrogenase (LDH) assay was performed. Briefly, the cells were incubated with the mixture under serum starved conditions for 1 hour followed by LDH assay. LDH was assayed using In vitro toxicology assay kit from Sigma-Aldrich, St. Louis, Mo., USA (cat. no.-TOX7) as per the manufacturer's directions. LDH assay substrate solution, LDH assay dye solution and 1×LDH assay cofactor were provided with the kit. […] To this LDH assay mixture was added and incubated at room temperature in the dark for 20-30 min. The reaction was terminated by the addition of 1/10 volume of 1N HCl. Absorption was taken 490 nm with the help of in a Tecan Microplate reader, Switzerland with Magellan™ software.

[6] = system: carrageenan induced paw edema; test: Carrageenan induced paw inflammation in mice; format: in vivo, mouse; conditions: Ibuprofen 100 mg/kg, 5th hour
Description: The effect of A-O complex was tested under in vivo conditions. Carrageenan, an inflammation inducing agent was injected into the hind foot pad of mouse to induce acute inflammation. The edema attains peak at around 3 hours post carrageenan challenge. This is a convenient model to assess the anti-inflammatory potency of test drugs to reduce or prevent the development of swelling. The protocol followed herein is as per Morris (2003) [Morris C J, 2003, Carrageenan induced paw edema in rat and mouse. In: Winyard P. G., Willoughby D. A. (eds) Inflammation Protocols. Methods in Molecular Biology, Vol 225. Humana Press. Pp 115-121].
Preparation of carrageenan: To prepare 0.5% of carrageenan solution, 50 mg of lamda-carrageenan ([…], Sigma Chemical Co., St. Louis, Mo., USA) was slowly added onto a small beaker containing 10 ml of normal saline. The powder was allowed to swell for some time and then slightly heated (not boiled) to dissolve the carrageenan. The solution was stirred during the heating. Once dissolved, the solution was cooled and aliquoted and stored at 4 degree Celsius.
Method: For experiment, the mice were acclimatized in cages under standard light and temperature settings with access to food and water ad libitum. Mice were acclimatized for 1 week in respective cages to minimize stress. At the day of experiment, mice were placed in a temporary animal restraint and 50 microlitre of carrageenan solution was administered by intraplantar injection to the right hind paw of each mouse. The left paw served as control and was administered 50 microlitre of normal saline.
To determine the efficacy of A-O complex different concentrations of complex viz. 5, 20 and 50 microgram per 100 g body weight of mice were administered intraperitoneally 1 hour before carrageenan challenge. Ibuprofen (100 mg/kg, Sigma Chemical Co., St. Louis, Mo., USA) served as positive control for the experiment. Paw size was measured by wrapping a piece of cotton thread round the paw of each […] and recording the length of the thread, the paw circumference, by use of a metric ruler. Paws were measured immediately before and at specified time points after carrageenan injection. Inhibitory activity was calculated at 1-5 h after carrageenan injection with the following formula: % Inhibition=[(Ct−C0)control−(Ct−C0)treated]/(Ct−C0)control×100, where Ct is paw size after carrageenan injection and C0 is paw size before carrageenan injection.

Question: undercarboxylated osteocalcin [Glu-OC] was tested. Which “amyloid pathology / deposits in brain (Congo Red)” value (5×FAD Tg mice [1]) did it give?
Answer: Its value is “significant reduction in amyloid pathology”.

Question: And the “amyloid pathology / deposits in brain (Congo Red)” value (5×FAD Tg mice [1]; listed as Gla-OC)?
Answer: Its value is “lesser amyloid deposits”.

Question: And the “fibrillar Abeta42 immunostaining of brain” value (5×FAD Tg mice [1]; fibrillar specific Abeta42 antibody)?
Answer: Its value is “fewer yet larger Abeta42+ fibrillar amyloid deposits; also recorded: positive for intense fibrillar Abeta42 structures”.

Question: And the “insoluble (plaque associated) Abeta42 level in brain” value (5×FAD Tg mice [2])?
Answer: Its value is “reduced”.

Question: And the “soluble Abeta42 level in brain” value (5×FAD Tg mice [2])?
Answer: The value was “increased”.

Question: And the “insoluble (plaque associated) Abeta42 level in brain” value (5×FAD Tg mice [2]; listed as Gla-OC)?
Answer: The value was “significantly reduced”.

Question: And the “soluble Abeta42 level in brain” value (5×FAD Tg mice [2]; listed as Gla-OC)?
Answer: Its value is “significantly increased”.

Question: What about the “increase in mRNA level of Cd36” value (RAW264.7 macrophages [3]) of the same compound?
Answer: Its value is “do not elicit induction”.

Question: What about the “increase in mRNA level of Cd74 (MHC-II)” value (RAW264.7 macrophages [3]) of the same compound?
Answer: The value was “do not elicit induction”.

Question: What about the “Abeta42 fibrillization (TEM)” value (Abeta42; Abeta42 100 micromolar with 3 ng of osteocalcin) of the same compound?
Answer: The value was “Mature fibrils”.

Question: And the “Abeta42 fibrillization (TEM)” value (Abeta42; Abeta42 100 micromolar, Glu-OC 3-10 ng or none, 1×PBS pH 7.4, 37° C., 8 hours)?
Answer: The value was “demonstrated fibrillization”.

Question: And the “escape latency (Morris water maze)” value (5×FAD Tg mice [4])?
Answer: The value was “lower escape latency; also recorded: reduced escape latency”.

Question: Which “LDH in cell culture supernatants (LDH release)” value (RAW264.7 macrophages [5]) does the source give for `OO` [H2O2, hydrogen peroxide] here?
Answer: Its value is “induces LDH release”.

Question: And the “intracellular LDH” value (RAW264.7 macrophages [5]; vs control)?
Answer: Its value is “rise in intracellular LDH”.

Question: How did the edema inhibition [6] turn out when `CC(C)Cc1ccc(C(C)C(=O)O)cc1` (stereo not drawn) [Positive control, Ibuprofen, reference compound] was run?
Answer: Its edema inhibition is 78%.
